16 molecules from patent US11986532B2 (Arvinas Operations, Inc., priority 2021, dated 2024) can be followed below.

For the assay, the target named is T1, BCL6 (Homo sapiens, UniProt P41182).
T1 construct: endogenous in cells; host or cells: T47D breast cancer epithelial cells
Nature of the assay: Immunofluorescence protocol for high content imaging of BCL6 (degradation) in T47D cells, 3 days compound treatment. The assay is classed as cell-based. Particulars: for Dmax: T47D, read-out: Mean Dmax (%)** category; for DC50: read-out: Mean DC50 (nM)* category. The essentials: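 Remaining BCL6 in breast cancer T47D cells was measured by high-content immunofluorescence imaging after 3 days of treatment with serially diluted compound (top 0.1 or 1 μM). Nuclei were stained with Hoechst and cells with CellMask.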

For the molecule `CNC(=O)COc1cc2cc(Nc3nc(N4CCN(CC5CCC6(CC5)CN(c5ccc7c(c5)CN(C5CCC(=O)NC5=O)C7=O)C6)CC4)ncc3Cl)ccc2n(C(C)C)c1=O` (stereo not shown) [Compound 305, 2-{[6-({5-chloro-2-[4-({2-[2-(2,6-dioxopiperidin-3-yl)-1-oxo-2,3-dihydro-1H-isoindol-5-yl]-2-azaspiro[3.5]nonan-7-yl}methyl)piperazin-1-yl]pyrimidin-4-yl}amino)-2-oxo-1-(propan-2-yl)-1,2-dihydroquinolin-3-yl]oxy}-N-methylacetamide], the Dmax (in general, the largest share of the target that was removed) was 50 to 70% and the DC50 (commonly the midpoint of the concentration-degradation curve) was below 10 nM.

In the case of `CNC(=O)COc1cc2cc(Nc3nc(N4CCN(CC5CCC6(CC5)CN(c5cc7c(cc5F)C(=O)N(C5CCC(=O)NC5=O)C7)C6)CC4)ncc3Cl)ccc2n(C(C)C)c1=O` (stereo not shown) [Compound 306, 2-{[6-({5-chloro-2-[4-({2-[2-(2,6-dioxopiperidin-3-yl)-6-fluoro-1-oxo-2,3-dihydro-1H-isoindol-5-yl]-2-azaspiro[3.5]nonan-7-yl}methyl)piperazin-1-yl]pyrimidin-4-yl}amino)-2-oxo-1-(propan-2-yl)-1,2-dihydroquinolin-3-yl]oxy}-N-methylacetamide], the greatest degradation seen (Dmax) lay in the range of 50 to 70% and the DC50 is below 10 nM.

As to `CNC(=O)COc1cc2cc(Nc3nc(N4CCN(CC5CCC6(CC5)CN(c5ccc7c(c5F)CN(C5CCC(=O)NC5=O)C7=O)C6)CC4)ncc3Cl)ccc2n(C(C)C)c1=O` (stereo not shown) [Compound 307, 2-{[6-({5-chloro-2-[4-({2-[2-(2,6-dioxopiperidin-3-yl)-4-fluoro-1-oxo-2,3-dihydro-1H-isoindol-5-yl]-2-azaspiro[3.5]nonan-7-yl}methyl)piperazin-1-yl]pyrimidin-4-yl}amino)-2-oxo-1-(propan-2-yl)-1,2-dihydroquinolin-3-yl]oxy}-N-methylacetamide], the Dmax lay within 50 to 70% and the DC50 was below 10 nM.

Consider `CNC(=O)COc1cc2cc(Nc3nc(N4CCC(N(C)C5CCC6(CC5)CN(c5ccc7c(c5)C(=O)N(C5CCC(=O)NC5=O)C7=O)C6)CC4)ncc3Cl)ccc2n(C(C)C)c1=O` (stereo not shown) [Compound 308, 2-{[6-({5-chloro-2-[4-({2-[2-(2,6-dioxopiperidin-3-yl)-1,3-dioxo-2,3-dihydro-1H-isoindol-5-yl]-2-azaspiro[3.5]nonan-7-yl} (methyl)amino)piperidin-1-yl]pyrimidin-4-yl}amino)-2-oxo-1-(propan-2-yl)-1,2-dihydroquinolin-3-yl]oxy}-N-methylacetamide], for which the Dmax lay within 50 to 70% and the DC50 was below 10 nM.

As for `CNC(=O)COc1cc2cc(Nc3nc(N4CCC(O[C@H]5C[C@H](N6CC7(CCN7c7ccc8c(c7)CN(C7CCC(=O)NC7=O)C8=O)C6)C5)CC4)ncc3Cl)ccc2n(C(C)C)c1=O` (stereo partly shown) [Compound 309, 2-({6-[(5-chloro-2-{4-[(1r,3r)-3-{1-[2-(2,6-dioxopiperidin-3-yl)-1-oxo-2,3-dihydro-1H-isoindol-5-yl]-1,6-diazaspiro[3.3]heptan-6-yl}cyclobutoxy]piperidin-1-yl}pyrimidin-4-yl)amino]-2-oxo-1-(propan-2-yl)-1,2-dihydroquinolin-3-yl}oxy)-N-methylacetamide], the Dmax was in the range of 50 to 70% and the DC50 is below 10 nM.

Turning to `CNC(=O)COc1cc2cc(Nc3nc(N4CCC(O[C@H]5C[C@H](N6CC7(CCN7c7cccc8c7C(=O)N(C7CCC(=O)NC7=O)C8)C6)C5)CC4)ncc3Cl)ccc2n(C(C)C)c1=O` (stereo partly shown) [Compound 310, 2-({6-[(5-chloro-2-{4-[(1r,3r)-3-{1-[2-(2,6-dioxopiperidin-3-yl)-3-oxo-2,3-dihydro-1H-isoindol-4-yl]-1,6-diazaspiro[3.3]heptan-6-yl}cyclobutoxy]piperidin-1-yl}pyrimidin-4-yl)amino]-2-oxo-1-(propan-2-yl)-1,2-dihydroquinolin-3-yl}oxy)-N-methylacetamide], the Dmax was in the range of 50 to 70% and the DC50 is below 10 nM.

As to `CNC(=O)COc1cc2cc(Nc3nc(N4CCC(O[C@H]5C[C@H](N6CC7(CN(c8ccc9c(c8)C(=O)N(C8CCC(=O)NC8=O)C9=O)C7)C6)C5)CC4)ncc3Cl)ccc2n(C(C)C)c1=O` (stereo partly shown) [Compound 311, 2-({6-[(5-chloro-2-{4-[(1r,3r)-3-{6-[2-(2,6-dioxopiperidin-3-yl)-1,3-dioxo-2,3-dihydro-1H-isoindol-5-yl]-2,6-diazaspiro[3.3]heptan-2-yl}cyclobutoxy]piperidin-1-yl}pyrimidin-4-yl)amino]-2-oxo-1-(propan-2-yl)-1,2-dihydroquinolin-3-yl}oxy)-N-methylacetamide], the Dmax was in the range of 50 to 70% and the DC50 is below 10 nM.

Regarding `CNC(=O)COc1cc2cc(Nc3nc(N4CCC(OC5CCC6(CC5)CN(c5ccc(F)c7c5CN(C5CCC(=O)NC5=O)C7=O)C6)CC4)ncc3Cl)ccc2n(C(C)C)c1=O` (stereo not shown) [Compound 312, 2-{[6-({5-chloro-2-[4-({2-[2-(2,6-dioxopiperidin-3-yl)-7-fluoro-1-oxo-2,3-dihydro-1H-isoindol-4-yl]-2-azaspiro[3.5]nonan-7-yl}oxy)piperidin-1-yl]pyrimidin-4-yl}amino)-2-oxo-1-(propan-2-yl)-1,2-dihydroquinolin-3-yl]oxy}-N-methylacetamide], the Dmax fell in the range of 50 to 70% and the DC50 is below 10 nM.

For the molecule `CNC(=O)COc1cc2cc(Nc3nc(N4CCN(CC5CCC6(CC5)CN(c5cccc7c5CN(C5CCC(=O)NC5=O)C7=O)C6)CC4)ncc3Cl)ccc2n(C(C)C)c1=O` (stereo not shown) [Compound 313, 2-{[6-({5-chloro-2-[4-({2-[2-(2,6-dioxopiperidin-3-yl)-1-oxo-2,3-dihydro-1H-isoindol-4-yl]-2-azaspiro[3.5]nonan-7-yl}methyl)piperazin-1-yl]pyrimidin-4-yl}amino)-2-oxo-1-(propan-2-yl)-1,2-dihydroquinolin-3-yl]oxy}-N-methylacetamide], the Dmax is 50 to 70% and the DC50 is below 10 nM.

As for `CNC(=O)COc1cc2cc(Nc3nc(N4CCN(CC5CCC6(CC5)CN(c5c(F)ccc7c5CN(C5CCC(=O)NC5=O)C7=O)C6)CC4)ncc3Cl)ccc2n(C(C)C)c1=O` (stereo not shown) [Compound 314, 2-{[6-({5-chloro-2-[4-({2-[2-(2,6-dioxopiperidin-3-yl)-5-fluoro-1-oxo-2,3-dihydro-1H-isoindol-4-yl]-2-azaspiro[3.5]nonan-7-yl}methyl)piperazin-1-yl]pyrimidin-4-yl}amino)-2-oxo-1-(propan-2-yl)-1,2-dihydroquinolin-3-yl]oxy}-N-methylacetamide], the Dmax is 50 to 70% and the DC50 is below 10 nM.

Turning to `CNC(=O)COc1cc2cc(Nc3nc(N4CCN(CC5CCC6(CC5)CN(c5cc(F)cc7c5CN(C5CCC(=O)NC5=O)C7=O)C6)CC4)ncc3Cl)ccc2n(C(C)C)c1=O` (stereo not shown) [Compound 315, 2-{[6-({5-chloro-2-[4-({2-[2-(2,6-dioxopiperidin-3-yl)-6-fluoro-1-oxo-2,3-dihydro-1H-isoindol-4-yl]-2-azaspiro[3.5]nonan-7-yl}methyl)piperazin-1-yl]pyrimidin-4-yl}amino)-2-oxo-1-(propan-2-yl)-1,2-dihydroquinolin-3-yl]oxy}-N-methylacetamide], the Dmax was in the range of 50 to 70% and the DC50 is below 10 nM.

As to `CNC(=O)COc1cc2cc(Nc3nc(N4CCN(CC5CCC6(CC5)CN(c5ccc(F)c7c5CN(C5CCC(=O)NC5=O)C7=O)C6)CC4)ncc3Cl)ccc2n(C(C)C)c1=O` (stereo not shown) [Compound 316, 2-{[6-({5-chloro-2-[4-({2-[2-(2,6-dioxopiperidin-3-yl)-7-fluoro-1-oxo-2,3-dihydro-1H-isoindol-4-yl]-2-azaspiro[3.5]nonan-7-yl}methyl)piperazin-1-yl]pyrimidin-4-yl}amino)-2-oxo-1-(propan-2-yl)-1,2-dihydroquinolin-3-yl]oxy}-N-methylacetamide], the Dmax is 50 to 70% and the half-maximal degradation concentration (DC50) is below 10 nM.

In the case of `CNC(=O)COc1cc2cc(Nc3nc(N4CCC(O[C@H]5C[C@H](N6CC7(CCN7c7cccc8c7CN(C7CCC(=O)NC7=O)C8=O)C6)C5)CC4)ncc3Cl)ccc2n(C(C)C)c1=O` (stereo partly shown) [Compound 317, 2-({6-[(5-chloro-2-{4-[(1r,3r)-3-{1-[2-(2,6-dioxopiperidin-3-yl)-1-oxo-2,3-dihydro-1H-isoindol-4-yl]-1,6-diazaspiro[3.3]heptan-6-yl}cyclobutoxy]piperidin-1-yl}pyrimidin-4-yl)amino]-2-oxo-1-(propan-2-yl)-1,2-dihydroquinolin-3-yl}oxy)-N-methylacetamide], the Dmax is 50 to 70% and the 50% degradation concentration (DC50) is below 10 nM.

Regarding `CNC(=O)COc1cc2cc(Nc3nc(N4CCN(CC5CC6(CCN(c7cc8c(cc7F)C(=O)N(C7CCC(=O)NC7=O)C8)CC6)C5)CC4)ncc3Cl)ccc2n(C(C)C)c1=O` (stereo not shown) [Compound 318, 2-{[6-({5-chloro-2-[4-({7-[2-(2,6-dioxopiperidin-3-yl)-6-fluoro-1-oxo-2,3-dihydro-1H-isoindol-5-yl]-7-azaspiro[3.5]nonan-2-yl}methyl)piperazin-1-yl]pyrimidin-4-yl}amino)-2-oxo-1-(propan-2-yl)-1,2-dihydroquinolin-3-yl]oxy}-N-methylacetamide], the Dmax lay in the range of 50 to 70% and the DC50 is below 10 nM.

Regarding `CNC(=O)COc1cc2cc(Nc3nc(N4CCN(CC5CC6(CCN(c7ccc8c(c7F)CN(C7CCC(=O)NC7=O)C8=O)CC6)C5)CC4)ncc3Cl)ccc2n(C(C)C)c1=O` (stereo not shown) [Compound 319, 2-{[6-({5-chloro-2-[4-({7-[2-(2,6-dioxopiperidin-3-yl)-4-fluoro-1-oxo-2,3-dihydro-1H-isoindol-5-yl]-7-azaspiro[3.5]nonan-2-yl}methyl)piperazin-1-yl]pyrimidin-4-yl}amino)-2-oxo-1-(propan-2-yl)-1,2-dihydroquinolin-3-yl]oxy}-N-methylacetamide], the Dmax is 50 to 70% and the DC50 was below 10 nM.

Take `CNC(=O)COc1cc2cc(Nc3nc(N4CCCCC4)ncc3Cl)ccc2n(CCOc2ccc3c(c2)C(=O)N(C2CCC(=O)N(C)C2=O)C3=O)c1=O` (stereo not shown) [Compound 320, 2-[(6-{[5-chloro-2-(piperidin-1-yl)pyrimidin-4-yl]amino}-1-(2-{[2-(1-methyl-2,6-dioxopiperidin-3-yl)-1,3-dioxo-2,3-dihydro-1H-isoindol-5-yl]oxy}ethyl)-2-oxo-1,2-dihydroquinolin-3-yl)oxy]-N-methylacetamide]: the DC50 was below 10 nM.
